Entries after “also recorded” stand apart in the source; their conditions may differ.
Columns and labels:
[1] = Plasma pharmacokinetics after oral dosing in mice; assay type: in vivo, mouse
Protocol: Plasma concentrations of GRG-1-34: These concentrations were determined by high performance liquid chromatography (HPLC) tandem mass spectrometry (MS). Quantification was achieved by GRG-1-34 calibration standards prepared in mouse plasma. GRG-1-34 in calibration standards or authentic samples was extracted by protein precipitation with methanol. After centrifugation, the supernatant was injected onto the HPLC-MS system. HPLC separation was achieved using a C-18 column and a gradient mobile phase of water and acetonitrile, both with 0.1% formic acid. The mass spectrometer was operated in the electrospray positive ion mode with selective reaction monitoring. The calibration curve was linear over the plasma concentration range of 2-1800 ng/ml. The pharmacokinetic analysis was performed using PKSolver 2.0 by a noncompartmental analysis. Murine gavage with GRG 1-34 was approved by the Animal Care Committee of the University of Arizona.
To examine the pharmacokinetics of this class of com-pounds GRG 1-34, one of the active isoforms, was given orally and blood was sampled from 3 mice at each time point (FIG. 21). The plasma concentration of GRG-1-34 peaked at 0.5 h after oral dosing and declined as a function of time. […] It has a large apparent volume of distribution (VZ/F) and apparent systemic clearance (CL/F), likely attributed to low systemic bioavailability (F) after oral dosing. At the maximum blood concentration of […], GRG-1-34 reached a concentration of 4 μM which in cell culture was sufficient to inhibit cell growth.

PANC1 cells = experiment: Reverse-phase protein array (RPPA) of PANC1 cells, Table 3; assay type: cell-based; details: 6 h treatment, divided by zero-time value, average of triplicate
Protocol: To further examine how these compounds function to inhibit tumor growth, changes in both a wide variety of phosphoprotein and protein levels using reverse-phase protein arrays (RPPA) were evaluated. […] The values in the RPPA obtained at these two time points were divided by the value at time zero to allow an evaluation of the changes caused by each drug treatment.

[2] = test system: T-cell acute lymphoblastic leukemia cell line DU528; experiment: Cell viability (XTT) assay in T-ALL cells; assay type: cell-based; details: 72 h, listed as VBT 1-34
Protocol: Cell viability (XTT) assay: T-ALL cells were seeded into 96 well plates at a density of 20,000 cells per well and treated with VBT-5445 for 72 h, using DMSO as control. Cell viability was measured using XTT cell proliferation assay (Trevigen Cat #4891-025-K) following the manufacturer's protocol. Briefly, XTT reagent was added to cell culture after the treatment and incubated for 4 h at 37° C. and 5% CO2. The absorbance of the colored formazan product was measured at 450 nm.

PC3-LN4 and PANC1 cells = experiment: RPPA of PC3-LN4 and PANC1 cells (FIG. 24); assay type: cell-based; details: 5 μM, 24 h
Protocol: Tumor cells were treated with or without GRG-1-34 (5 μM) for 24 h and lysates were subjected to RPPA. The results were clustered in the form of heat map created using the Heatmapper web tool. The analysis was completed with the clustering method of Complete Linkage and the distance measurement method of Kendall's Tau.
To further examine how these compounds function to inhibit tumor growth, changes in both a wide variety of phosphoprotein and protein levels using reverse-phase protein arrays (RPPA) were evaluated. PANC1 and PC3-LN4 cells were treated with GRG1-34 at 5 μM for 24 h. […] The values in the RPPA obtained at these two time points were divided by the value at time zero to allow an evaluation of the changes caused by each drug treatment.

PC3-LN4 cells = experiment: Western blotting of PC3-LN4 cell lysates; assay type: cell-based, human; details: PC3-LN4 cells with CRISPR/CAS9 knockout of TSC2 or DEPDC5
mTORC = experiment: Phosphorylation of mTORC substrates in PANC1 cells (Western blot); assay type: cell-based; details: overnight incubation
Protocol: Immunoblotting: Western blots were performed as described previously. Briefly, protein lysates (30 μg) were subjected to SDS-PAGE and transferred to nitrocellulose membranes. After blocking with 5% milk in TBST buffer for 30 min at room temperature, the membranes were incubated overnight at 4° C. with the Indicated primary antibody in 3% BSA in TBST. Specific proteins were detected with the corresponding HRP conjugated secondary antibody using enhanced chemiluminescence (GE Lifesciences, Piscataway, NJ).
Because of ease of growth, PANC1 pancreatic cancer cells were used to test the activity of derivatives of VBT-5445 (FIG. 14). […] Using a doxycycline inducible Pim kinase vector in these tumor cells, this inhibition of phosphorylation was proportional to the level of Pim in these cells (FIG. 9). […] Inhibition of mTORC1 is known to stimulate the feedback activation of mTORC2 leading to AKT phosphorylation. […] The effect of these compounds on mTORC1 and 2 was still evident in PC3-LN4 cells that contained a knockout (KO) using CRISPR/CAS9 of either TSC2 or DEPDC5 (FIG. 12, lanes 4-9). TSC2 KO activated the Rheb GTPase while DEPDC5 KO activated the RAG GTPase both of which stimulate mTORC1 activity. Thus, GRG compounds were capable of inhibiting mTORC1 activity even when this kinase was highly activated.

O=c1c(CNCc2cc(Br)ccn2)cc2ccc(Cl)cc2n1CCOc1ccccc1 [GRG-1-34, 3-((((4-bromopyridin-2-yl)methyl)amino)methyl)-7-chloro-1-(2-phenoxyethyl) quinolin-2 (1H)-one]
half-life ([1]; mouse, plasma, 62 mg/kg, oral, read-out: half-life (T1/2) (converted)): 2.08 h | Cmax ([1]; mouse, plasma, oral, dose of 62 mg/kg, read-out: average maximum plasma concentration (Cmax)): 1990 ng/mL | apparent systemic clearance (CL/F) ([1]; oral): large | maximum blood concentration ([1]; oral): 2 ng/mL | time at which the plasma concentration peaked after oral dosing ([1]; oral (gavage)): 0.5 h | blood concentration reached at the maximum, molar ([1]; oral, level sufficient in cell culture to inhibit growth): 4 µM | 4EBP1S65, RPPA value after treatment / zero-time value (PANC1 cells): 0.52 | 4EBP1T70, RPPA value after treatment / zero-time value (PANC1 cells): 0.75 | ATMS1981, RPPA value after treatment / zero-time value (PANC1 cells): 0.46 | CICaspase3D175, RPPA value after treatment / zero-time value (PANC1 cells): 1.09 | CofilinS3, RPPA value after treatment / zero-time value (PANC1 cells): 0.46 | CrkIIY221, RPPA value after treatment / zero-time value (PANC1 cells): 1.58 | ERKT202_Y204, RPPA value after treatment / zero-time value (PANC1 cells): 2.39 | FAKY576_577, RPPA value after treatment / zero-time value (PANC1 cells): 0.78 | FKHR-FOX01S256, RPPA value after treatment / zero-time value (PANC1 cells): 0.71 | GSK3a_bS21_9, RPPA value after treatment / zero-time value (PANC1 cells): 1.66 | HistoneH2AXS139, RPPA value after treatment / zero-time value (PANC1 cells): 0.76 | HistoneH3S10, RPPA value after treatment / zero-time value (PANC1 cells): 0.69 | IL-1bcleavedD116, RPPA value after treatment / zero-time value (PANC1 cells): 0.41 | Jak1Y1022_1023, RPPA value after treatment / zero-time value (PANC1 cells): 0.79 | MAPKpTEpY, RPPA value after treatment / zero-time value (PANC1 cells): 1.35 | PDGFRbY751, RPPA value after treatment / zero-time value (PANC1 cells): 7.02 | PP1aT320, RPPA value after treatment / zero-time value (PANC1 cells): 0.47 | PaxillinY118, RPPA value after treatment / zero-time value (PANC1 cells): 1.08 | RetY905, RPPA value after treatment / zero-time value (PANC1 cells): 0.77 | S6RibosomalPS235_236, RPPA value after treatment / zero-time value (PANC1 cells): 1.05 | S6RibosomalProtein S240_244, RPPA value after treatment / zero-time value (PANC1 cells): 0.95 | SAPK_JNKT183_Y185, RPPA value after treatment / zero-time value (PANC1 cells): 0.85 | Stat2Y690, RPPA value after treatment / zero-time value (PANC1 cells): 2.89 | Stat3Y705, RPPA value after treatment / zero-time value (PANC1 cells): 1.57 | Tyk2Y1054_1055, RPPA value after treatment / zero-time value (PANC1 cells): 0.39 | VEGFR2Y1175, RPPA value after treatment / zero-time value (PANC1 cells): 0.54 | YAPS127, RPPA value after treatment / zero-time value (PANC1 cells): 0.68 | cAbIY245, RPPA value after treatment / zero-time value (PANC1 cells): 0.87 | cKitY703, RPPA value after treatment / zero-time value (PANC1 cells): 1.8 | p38MAPKT180_Y182, RPPA value after treatment / zero-time value (PANC1 cells): 1.15 | p70S6KS371, RPPA value after treatment / zero-time value (PANC1 cells): 0.62 | p70S6KT389, RPPA value after treatment / zero-time value (PANC1 cells): 0.74 | p90RSKS380, RPPA value after treatment / zero-time value (PANC1 cells): 1.51 | growth of T-acute lymphoblastic leukemia cells [2]: inhibits the growth; also recorded: shows activity | mTORC signaling pathway on RPPA (mTOR S2448, S6 S235/235, S6K T389, 4E-BP1 S65) (PC3-LN4 and PANC1 cells): inhibition | phosphorylation of AMPK T172 on RPPA (PC3-LN4 and PANC1 cells): increased | phosphorylation of acetyl COA carboxylase S79 on RPPA (PC3-LN4 and PANC1 cells): increased | mTORC activity in TSC2 or DEPDC5 KO prostate tumor cells (PC3-LN4 cells): inhibits mTORC | block of phosphorylation of mTORC substrates (AKT, 4E-BP1, S6) (mTORC; FIG. 19): block the phosphorylation of mTORC substrates | block of phosphorylation of mTORC substrates (AKT, 4E-BP1, S6) (mTORC; FIG. 19, listed as VBT 1-34): inhibit phosphorylation of mTORC substrates

Source: patent publication US20250129045A1, “SMALL MOLECULE PIM AND MTOR KINASE INHIBITOR AND METHODS OF USE THEREOF” (Arizona Board of Regents on Behalf of the University of …, priority 2022, published 2025)
